# PubChem BioAssay (NCI)
# Where “and” joins values, the source holds several entries; their conditions need not be identical. Equal entries are not always repeated.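 Five compound concentrations were applied to cells in 96-well plates for 48 hours; endpoints were derived by simple linear interpolation of the resulting dose-response curve. Abbreviation: GI50, concentration required for 50% inhibition of growth. At the TGI there is no net growth.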
# What was measured:
# Experiment in all cases: NCI tumour cell line growth inhibition, 48 h
# [1] = tested on: A498 renal
# [2] = tested on: COLO 205 colon
# [3] = tested on: HOP-62 NSCLC
# [4] = tested on: MDA-MB-435
# [5] = tested on: OVCAR-3 ovarian
# [6] = tested on: SK-OV-3 ovarian
# [7] = tested on: SNB-19 CNS
# [8] = tested on: SNB-75 CNS
# [9] = tested on: UO-31 renal
# [10] = tested on: NCI-H23 lung
Compound,GI50 [1],TGI [1],GI50 [2],TGI [2],GI50 [3],TGI [3],GI50 [4],TGI [4],GI50 [5],TGI [5],GI50 [6],TGI [6],GI50 [7],TGI [7],GI50 [8],TGI [8],GI50 [9],TGI [9],GI50 [10],TGI [10]
Cc1cccc(Oc2nccc(-c3c(-c4ccc(F)cc4)ncn3C3CCNCC3)n2)c1C,6.22 µM,> 15.7 µM,4.21 µM,8.03 µM,4.84 µM,9.56 µM,6.52 µM,> 16.1 µM,14.3 µM,> 25 µM,5.72 µM,12.5 µM,10.2 µM,> 25 µM,5.58 µM,> 17.5 µM,4.97 µM,> 19.9 µM,,
CC1/C=C/C=C/C=C/C=C/C=C/C=C/C=C/C(O[C@@H]2O[C@H](C)[C@H](O)[C@@H](O)[C@@H]2N)CC(O)C(C(=O)O)C(O)CC(=O)CC(O)CC(O)CC(O)CC(=O)CCCC(=O)CC(=O)OC1C(C)CC(C)C(O)CC(=O)c1ccc(N)cc1 (stereo partly drawn),0.0512 µM and 0.159 µM,0.0948 µM and 0.32 µM,0.559 µM,1.72 µM,0.063 µM and 0.192 µM,0.118 µM and 0.402 µM,0.0597 µM and 0.208 µM,0.108 µM and 0.438 µM,0.0631 µM and 0.374 µM,,0.0674 µM and 0.298 µM,0.119 µM and 0.908 µM,0.066 µM and 0.279 µM,0.147 µM and 1.09 µM,0.0596 µM and 0.242 µM,0.12 µM and 0.787 µM,0.0456 µM and 0.159 µM,0.0882 µM and 0.328 µM,0.055 µM and 0.187 µM,0.102 µM and 0.371 µM
O=C(O)C1C(C(=O)Nc2ccc3c(c2)Cc2ccccc2-3)C2(Cl)C(Cl)=C(Cl)C1(Cl)C2(Cl)Cl (stereo not drawn),,47.7 µM,,31.4 µM,,> 100 µM,,76.8 µM,,35.9 µM,,> 100 µM,,> 100 µM,,91.8 µM,,55.5 µM,,31.3 µM
ClC1=C(Cl)C(Cl)=C(Cl)C1=C/C=C/c1ccccc1,0.59 µM,1.22 µM,0.226 µM,0.686 µM,1.2 µM,4.17 µM,0.302 µM,0.977 µM,0.239 µM,0.532 µM,2.44 µM,> 27.5 µM,0.59 µM,2.44 µM,0.251 µM,1.85 µM,0.201 µM,0.756 µM,0.257 µM,1.14 µM
CCSCC(N)C(=O)O (stereo not drawn),,> 100 µM,,> 100 µM,,> 100 µM,,> 100 µM,,> 100 µM,,> 100 µM,,> 100 µM,,> 100 µM,,> 100 µM,,> 100 µM
CC(C)[C@@]12C[C@@H](OC(=O)[C@H]3CO3)[C@@](C)(O1)[C@@H]1CC[C@@H](C)[C@H]1[C@@H]2OC(=O)/C=C/c1ccccc1,0.217 µM,0.684 µM,23.2 µM,> 65.1 µM,33.2 µM,> 100 µM,20.6 µM,> 73.5 µM,12.3 µM,30.8 µM,18.2 µM,45.8 µM,21.6 µM,74.6 µM,2.72 µM,29.7 µM,0.177 µM,0.416 µM,19.7 µM,> 100 µM
CCCCCCCCCCCCCCCCCC1=NCCN1CS(=O)(=O)O,14.8 µM,31 µM,5.07 µM,18.5 µM,14.1 µM,31.4 µM,2.84 µM,9.82 µM,15 µM,33.7 µM,18.1 µM,39.4 µM,17.9 µM,40.9 µM,17.2 µM,44.9 µM,6.28 µM,23 µM,15.4 µM,33.4 µM
CN1CCCNc2c(c(=O)c2=O)NCCCN(C)CCCNc2c(c(=O)c2=O)NCCCN(C)CCCNc2c(c(=O)c2=O)NCCCN(C)CCCNc2c(c(=O)c2=O)NCCCN(C)CCCNc2c(c(=O)c2=O)NCCCN(C)CCCNc2c(c(=O)c2=O)NCCCN(C)CCCNc2c(c(=O)c2=O)NCCC1,2.72 µM,11.1 µM,2 µM,6.13 µM,4.41 µM,13.8 µM,2.68 µM,11.5 µM,4.39 µM,15.1 µM,2.46 µM,8.29 µM,2.59 µM,33.9 µM,9.48 µM,19.3 µM,2.01 µM,9.19 µM,,
CN(C)c1ccc(C(=C2C=CC(=[N+](C)C)C=C2)c2ccc(N(C)C)cc2)cc1 (tested in a mixture with another compound),0.0607 µM,0.343 µM,0.0232 µM,0.0519 µM,0.0446 µM,1.29 µM,0.0626 µM,0.676 µM,0.133 µM,0.949 µM,,0.933 µM,,1.56 µM,0.0724 µM,0.54 µM,,1.39 µM,,
COc1cc2c(cc1OCCOS(C)(=O)=O)N=C[C@@H]1CCCN1C2=O,17.1 µM,48.7 µM,,> 100 µM,,,,37.7 µM,16.3 µM,31.3 µM,,> 100 µM,,> 100 µM,,> 100 µM,15.2 µM,33.1 µM,12.2 µM,25.2 µM
NC(=O)C1=NNc2ccccc2C(=O)N1c1ccccc1,,> 100 µM,,> 100 µM,,> 100 µM,,> 100 µM,,> 100 µM,,> 100 µM,,> 100 µM,,> 100 µM,,> 100 µM,,
O=C(OCc1ccccc1)N1CCN(/[N+]([O-])=N/Oc2ccc([N+](=O)[O-])cc2[N+](=O)[O-])CC1,,,4.35 µM,18.6 µM,12.3 µM,28 µM,4.93 µM,19.5 µM,3.01 µM,6.96 µM,,,13.6 µM,35.8 µM,15.6 µM,32.7 µM,3.82 µM,> 100 µM,6.45 µM,44.8 µM
COc1cc(C(=O)/C=C/c2cc(C(=O)c3cc(OC)c(OC)c(OC)c3)ccc2OC)ccc1N,2.14 µM,5.92 µM,,,2.03 µM,8.31 µM,1.19 µM,> 100 µM,0.448 µM,4.17 µM,3.16 µM,16.1 µM,,,1.16 µM,4.35 µM,0.762 µM,2.12 µM,1.42 µM,4.1 µM
CSc1cnn(CCC#N)c(=O)n1,,> 100 µM,,> 100 µM,,> 100 µM,,> 100 µM,,,,> 100 µM,,> 100 µM,,> 100 µM,,> 100 µM,,> 100 µM
